Measured values from patent US11040053B2, “Compositions and methods for activating “stimulator of interferon gene”13 dependent signalling” (CHINOOK THERAPEUTICS, INC., priority 2015, dated 2021).

Assays:
HAQ allele hSTING = molecular target: T1, HAQ allele hSTING (Homo sapiens, UniProt Q86WV6, G230A/H232R/R293Q); test: Differential scanning fluorometry (DSF) binding to purified hSTING HAQ allele; conditions: DSF, 1 mg/ml STING AA140-379, ligand 1 mM
T1 construct: DNA encoding amino acids 140-379 (amino acid numbering corresponding to Swiss Prot Q86WV6); 6xHIS (N, cleaved yes); SUMO (N, cleaved yes); made in house; host or cells: Rosetta2 (DE3) E. coli
Procedure: (§1) Cells were grown in lysogeny broth at 37° C. until a […] absorbance of 0.6 was reached. […] Cell pellets were re-suspended on ice in a buffer containing 50 mM Tris hydrochloride (Tris-HCl) pH 7.5, 500 mM sodium chloride (NaCl), 20 mM imidazole, 10% glycerol, 1 mM tris(2-carboxyethyl)phosphine hydrochloride (TCEP) and protease inhibitor tablet (Pierce) (Buffer A). Cells were lysed using an S-450D sonifier (Emmerson industrial) on ice. […] Protein was aliquoted, flash frozen in liquid nitrogen and stored at −80° C. until use.
(§2) The protein is heated in the presence of a dye that binds to and fluoresces in hydrophobic environments. The protein is thermally denatured by heating resulting in increased dye binding to the unfolded protein and fluorescence. The temperature midpoint (Tm) of a proteins denaturation is established by calculating the half maximal value of the denaturation curve. The temperature midpoint of the protein in the presence of a ligand is directly related to the affinity of the ligand for the protein and therefore its ability to stabilize the protein at higher temperatures.
(§3) Samples were placed in hard shell PCR plate (Bio-Rad). The fluorescence as a function of temperature was recorded in a CFX 96 real time PCR machine (Bio-Rad) reading on the HEX channel, excitation 450-490, emission 560-580 nm. The temperature gradient was from 15-80° C. ramping 0.5° C. per 15 seconds and recording every 0.5° C. After subtraction of the background signal from a sample lacking protein and ligand. The midpoint temperature (Tm) was calculated by fitting the curves of the fluorescence as a function of temperature to a Boltzmann sigmoidal function (Graph Pad Prism).

hSTING(WT) = hSTING(WT) (Homo sapiens, UniProt Q86WV6, H232R); test: Differential scanning fluorometry (DSF) binding to purified hSTING WT; set-up: DNA encoding amino acids 140-379 (amino acid numbering corresponding to Swiss Prot Q86WV6); 6xHIS (N, cleaved yes); SUMO (N, cleaved yes); made in house; host or cells: Rosetta2 (DE3) E. coli; conditions: DSF, 1 mg/ml STING AA140-379, ligand 1 mM
Procedure: as §1, §2, §3

hSTING(REF) = hSTING(REF) (Homo sapiens, UniProt Q86WV6); test: Differential scanning fluorometry (DSF) binding to purified hSTING REF allele; set-up: DNA encoding amino acids 140-379 (amino acid numbering corresponding to Swiss Prot Q86WV6); 6xHIS (N, cleaved yes); SUMO (N, cleaved yes); made in house; host or cells: Rosetta2 (DE3) E. coli; conditions: for hSTING Tm Shift REF: DSF, 1 mg/ml STING AA140-379, ligand 1 mM
Procedure: as §1, §2, §3

[1] = molecular target: T2, human-STING(E149-S379)H232R protein (Homo sapiens, UniProt Q86WV6, H232R); test: Surface Plasmon Resonance binding to hSTING WT; conditions: Biacore T200, 15° C., steady-state analysis
T2 construct: His6 (C); made in house; host or cells: E. coli
Procedure: Binding of the mono- and di-F CDN compounds was assessed using Surface Plasmon Resononce to determine a binding constant. An E. coli expression construct (human-STING[E149-S379]H232R) was prepared harboring the protein sequence:
Aliquots were prepared and stored at −80° C. in 30 mM Tris pH 7.5/100 mM NaCl/10% glycerol.
N-terminal avi-tagged human-STING(E149-S379)H232R protein was immobilized (2500 RUs) on a streptavidin chip at 15° C. in a Biacore T200 (GE Healthcare). Titrations of cyclic dinucleotides (CDNs as indicated in Table 6) in 30 mM Tris pH 7.5/50 mM NaCL/0.005% Tween 20/1 mM DTT/2% DMSO, were profiled (30 μLs/min, 180 seconds for sample contact/120 seconds for dissociation) against hSTING at 15° C. Kinetic analysis of the data was performed using Biacore T200 Evaluation software. Steady-state analysis of the data was performed using Graphpad Prism 6.0 software, using one site-specific binding algorithm (Equation is Y=Bmax*X/(Kd+X)).

hSTING HAQ allele = molecular target: T3, hSTING HAQ allele (Homo sapiens, UniProt Q86WV6, G230A/H232R/R293Q/R71H); test: IRF-3 inducible secreted luciferase reporter in THP1-Dual cells without digitonin; type: cell-based; conditions: for activity relative to OH reference compound, in words: Table 5 comment, THP1 cells without digitonin; for EC50: without digitonin in THP1 cells (HAQ allele)
T3 construct: a human monocyte cell line containing the hSTING HAQ allele; host or cells: THP1-Dual cells
Procedure: After 30 minutes, cells were washed and fresh RPMI media containing 10% FBS was added, and cells were incubated at 37° C. with 5% CO2 Cell culture supernatants from each sample were collected after overnight incubation, and 10 μL of the cell culture supernatants was added to 50 μL QUANTI-Luc reagent (Invivogen). Type I interferon activation was determined by measuring secreted luciferase levels on a SpectraMax M3 spectrophotometer (Molecular Devices). The EC50 value was determined from the dose-response curve for the 10 concentrations from the serial dilution of the reference compounds and compounds of the invention tested in this assay as listed in Table 5.

[2] = molecular target: T4, reference (REF) STING allele (Homo sapiens, UniProt Q86WV6); test: Cytokine transcript induction (qRT-PCR) in STING^REF/REF hPBMCs; type: cell-based; conditions: FIGS. 9B-13B, 2 hours and 6 hours stimulation
T4 construct: endogenous in cells
Procedure: The induction of type I interferon was measured in human primary blood mononuclear cells (hPBMCs) to evaluate the potency of mono- or di-F-CDN compounds as described herein. hPBMCs from two unique donors were used: one donor was homozygous for the wild type (WT) STING allele (STING^WT/WT) and the other donor was homozygous for the so-called reference (REF) STING allele (STING^REF/REF). The STING genotype of these donors was determined by PCR amplification and sequencing: genomic DNA was isolated from 10^4 hPBMCs using Quick Extract DNA Extraction Solution (Epicentre) and was used to amplify regions of exon 3, 6, and 7 of the human STING gene.
Cells were incubated at 37° C., 5% CO2 with concentrations ranging from 100 μM to 0.1 μM of each CDN. After 2 hours (FIGS. 7 and 8) or 2 hours and 6 hours (FIGS. 9-13) stimulation, cells were harvested by centrifugation and washed once with phosphate-buffered saline. Cellular RNA was isolated using the Aurum Total RNA 96 Kit and cDNA was synthesized using the iScript cDNA Synthesis Kit. Target and reference gene expression was assessed by real-time qRT-PCR using PrimePCR probe assays and the CFX96 gene cycler (all reagents and equipment from BioRad). Normalized IFNβ expression was expressed relative to untreated cells. Target genes included type I interferon (IFNβ), Th1-associated cytokines (IFNγ, IL-12p40) and NF-kB dependent inflammatory cytokines (TNFα, IL-6). Reference genes included GUSB alone (FIGS. 7 and 8) or GUSB and HSP90AB1 (FIGS. 9-13).

T3 sequence (Q86WV6 whole entry R71H/G230A/H232R/R293Q): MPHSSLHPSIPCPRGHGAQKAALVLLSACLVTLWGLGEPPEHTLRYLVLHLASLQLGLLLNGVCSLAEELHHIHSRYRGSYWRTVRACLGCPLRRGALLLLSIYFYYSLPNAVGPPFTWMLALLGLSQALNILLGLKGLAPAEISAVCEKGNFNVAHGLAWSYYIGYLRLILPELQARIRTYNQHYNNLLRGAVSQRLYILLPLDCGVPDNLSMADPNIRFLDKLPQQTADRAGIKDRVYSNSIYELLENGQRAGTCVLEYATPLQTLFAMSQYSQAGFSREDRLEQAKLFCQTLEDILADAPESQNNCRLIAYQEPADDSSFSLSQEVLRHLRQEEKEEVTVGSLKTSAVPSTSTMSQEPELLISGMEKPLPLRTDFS
Chain of hSTING(REF) (Q86WV6 140-379): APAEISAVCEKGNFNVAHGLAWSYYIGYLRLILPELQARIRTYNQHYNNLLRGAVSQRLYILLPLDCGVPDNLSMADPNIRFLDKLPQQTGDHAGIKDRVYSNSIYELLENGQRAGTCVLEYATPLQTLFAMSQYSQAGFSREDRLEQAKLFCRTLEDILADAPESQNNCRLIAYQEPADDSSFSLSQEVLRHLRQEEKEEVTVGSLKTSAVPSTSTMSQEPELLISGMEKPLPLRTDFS
Chain of hSTING(WT) (Q86WV6 140-379 H232R): as the sequence (Q86WV6 140-379) above, with H93R counted along it
T1 sequence (Q86WV6 140-379 G230A/H232R/R293Q limits assumed): as the sequence (Q86WV6 140-379) above, with G91A, H93R, R154Q counted along it
T2 sequence (Q86WV6 with tags, fused parts or gaps H232R): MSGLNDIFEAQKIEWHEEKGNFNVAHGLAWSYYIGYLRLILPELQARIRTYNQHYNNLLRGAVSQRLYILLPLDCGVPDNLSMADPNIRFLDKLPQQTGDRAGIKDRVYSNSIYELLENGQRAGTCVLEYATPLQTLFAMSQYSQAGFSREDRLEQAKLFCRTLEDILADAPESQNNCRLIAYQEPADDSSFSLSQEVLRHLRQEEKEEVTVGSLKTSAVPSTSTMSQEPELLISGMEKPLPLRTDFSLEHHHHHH
T4 sequence (Q86WV6 whole entry): as the sequence (Q86WV6 whole entry R71H/G230A/H232R/R293Q) above, with H71R, A230G, R232H, Q293R counted along it

| SMILES | hSTING Tm Shift HAQ (HAQ allele hSTING) [°C] | hSTING Tm Shift WT (hSTING(WT)) [°C] | hSTING Tm Shift REF (hSTING(REF)) [°C] | Kd [1] [µM] | activity relative to OH reference compound, in words (hSTING HAQ allele) | EC50 (hSTING HAQ allele) [µM] | binding relative to OH reference compound, in words (hSTING(REF); Table 4 comment, REF allele hSTING) | cytokine responses (IFNβ, TNFα, IL-6, IFNγ, IL-12p40 expression), in words [2] |
| --- | --- | --- | --- | --- | --- | --- | --- | --- |
| Nc1ncnc2c1ncn2[C@@H]1O[C@@H]2COP(=O)(O)O[C@H]3[C@@H](F)[C@H](n4cnc5c(N)ncnc54)O[C@@H]3COP(=O)(O)O[C@H]2[C@H]1F [3'3'-(2'F-A)(2'F-A), reference compound] | 20.6 | 12.6 | 6.4 | 0.011 | – | – | – | – |
| Nc1nc2c(ncn2[C@@H]2O[C@@H]3CO[P@@](=O)(S)O[C@H]4[C@@H](F)[C@H](n5cnc6c(N)ncnc65)O[C@@H]4CO[P@@](=O)(S)O[C@H]3[C@H]2F)c(=O)[nH]1 [Compound 14, 2-Amino-9-((2R,3R,3aR,5R,7aR,9R,10R,10aR,12R,14aR)-9-(6-amino-9H-purin-9-yl)-3,10-difluoro-5,12-dimercapto-5,12-dioxidooctahydro-2H,7H-difuro [3,2-d:3′,2′-j][1,3,7,9]tetraoxa[2,8]diphosphacyclododecin-2-yl)-1,9-dihydro-6H-purin-6-one] | 34.2 | 19.3 | 12.5 | 0.093 | – | 3 | – | – |
| Nc1nc2c(ncn2[C@@H]2O[C@@H]3CO[P@](=O)(S)O[C@H]4[C@@H](F)[C@H](n5cnc6c(N)ncnc65)O[C@@H]4CO[P@@](=O)(S)O[C@H]3[C@H]2O)c(=O)[nH]1 [Compound 24a, 2-amino-9-((2R,3R,3aS,5R,7aR,9R,10R,10aR,12S,14aR)-9-(6-amino-9H-purin-9-yl)-10-fluoro-3-hydroxy-5,12-dimercapto-5,12-dioxidooctahydro-2H,7H-difuro[3,2-d:3′,2′-j][1,3,7,9]tetraoxa[2,8]diphosphacyclododecin-2-yl)-1,9-dihydro-6H-purin-6-one] | 15.3 | 9.3 | 7.0 | 0.684 | – | 89 | – | – |
| O=C(Nc1ncnc2c1ncn2[C@@H]1O[C@@H]2CO[P@@](=O)(S)O[C@H]3[C@@H](F)[C@H](n4cnc5c(NC(=O)c6ccccc6)ncnc54)O[C@@H]3CO[P@@](=O)(S)O[C@H]2[C@H]1F)c1ccccc1 [Compound 27, N,N′-(((2R,3R,3aR,5R,7aR,9R,10R,10aR,12R,14aR)-3,10-difluoro-5,12-dimercapto-5,12-dioxidooctahydro-2H,7H-difuro [3,2-d:3′,2′-j][1,3,7,9]tetraoxa[2,8]diphosphacyclododecine-2,9-diyl)bis(9H-purine-9,6-diyl))dibenzamide] | 10.1 | 8.9 | 8.7 | – | – | > 150 | improved binding | – |

Continued by falling EC50 (hSTING HAQ allele), values first:

| hSTING Tm Shift HAQ (HAQ allele hSTING) [°C] | hSTING Tm Shift WT (hSTING(WT)) [°C] | hSTING Tm Shift REF (hSTING(REF)) [°C] | Kd [1] [µM] | activity relative to OH reference compound, in words (hSTING HAQ allele) | EC50 (hSTING HAQ allele) [µM] | binding relative to OH reference compound, in words (hSTING(REF); Table 4 comment, REF allele hSTING) | SMILES | cytokine responses (IFNβ, TNFα, IL-6, IFNγ, IL-12p40 expression), in words [2] |
| --- | --- | --- | --- | --- | --- | --- | --- | --- |
| 16.0 | 9.4 | 5.4 | 1.28 | – | 59 | – | Nc1ncnc2c1ncn2[C@@H]1O[C@@H]2CO[P@@](=O)(S)O[C@H]3[C@@H](F)[C@H](n4cnc5c(N)ncnc54)O[C@@H]3CO[P@@](=O)(S)O[C@H]2[C@H]1O [Compound 22, (2R,3R,3aR,5R,7aR,9R,10R,10aS,12R,14aR)-2,9-bis(6-amino-9H-purin-9-yl)-3-fluoro-10-hydroxy-5,12-dimercaptooctahydro-2H,7H-difuro[3,2-d:3′,2′-j][1,3,7,9]tetraoxa[2,8]diphosphacyclododecine 5,12-dioxide] | able to elicit cytokine responses at 6 hours stimulation with 100 μM of compound |
| – | – | – | 0.098 | improved activity | 18 | – | Nc1nc2c(ncn2[C@@H]2O[C@@H]3CO[P@](=O)(S)O[C@H]4[C@@H](F)[C@H](n5cnc6c(N)ncnc65)O[C@@H]4CO[P@@](=O)(S)O[C@H]3[C@H]2F)c(=O)[nH]1 [Compound 14a, 2-amino-9-((2R,3R,3aR,5R,7aR,9R,10R,10aR,12S,14aR)-9-(6-amino-9H-purin-9-yl)-3,10-difluoro-5,12-dimercapto-5,12-dioxidooctahydro-2H,7H-difuro [3,2-d:3′,2′-j][1,3,7,9]tetraoxa[2,8]diphosphacyclododecin-2-yl)-1,9-dihydro-6H-purin-6-one] | – |
| 27.7 | 14.3 | 7.8 | – | – | 10 | – | Nc1nc2c(ncn2[C@@H]2O[C@@H]3COP(=O)(O)O[C@H]4[C@@H](F)[C@H](n5cnc6c(N)ncnc65)O[C@@H]4COP(=O)(O)O[C@H]3[C@H]2F)c(=O)[nH]1 [Compound 30, 2-amino-9-((2R,3R,3aR,7aR,9R,10R,10aR,14aR)-9-(6-amino-9H-purin-9-yl)-3,10-difluoro-5,12-dihydroxy-5,12-dioxidooctahydro-2H,7H-difuro[3,2-d:3′,2′-j][1,3,7,9]tetraoxa[2,8]diphosphacyclododecin-2-yl)-1,9-dihydro-6H-purin-6-one] | – |
| – | – | – | 0.029 | improved activity | 8 | – | Nc1ncnc2c1ncn2[C@@H]1O[C@@H]2CO[P@@](=O)(S)O[C@H]3[C@@H](F)[C@H](n4cnc5c(N)ncnc54)O[C@@H]3CO[P@](=O)(S)O[C@H]2[C@H]1F [Compound 6a, (2R,3R,3aR,5R,7aR,9R,10R,10aR,12S,14aR)-2,9-bis(6-amino-9H-purin-9-yl)-3,10-difluoro-5,12-dimercaptooctahydro-2H,7H-difuro [3,2-d:3′,2′-j][1,3,7,9]tetraoxa[2,8]diphosphacyclododecine 5,12-dioxide] | – |
